From publication PMC9181543, “Lysosomal Exocytosis of Olivacine on the Way to Explain Drug Resistance in Cancer Cells” (International Journal of Molecular Sciences, 2022) come the findings set out here.

In data set [1] the test system is MCF-7 cells. Briefly: MTT assay (mitochondrial activity), MCF-7. Particulars: Homo sapiens, MCF7. It is filed as cell-based. As to the method: (§1) The anticancer activity of tested compounds was assessed on five human cell lines selected from the panel of tumor cell lines recommended by the National Cancer Institute: A495 (lung carcinoma), CCRF/CEM (acute lymphoblastic leukemia), LoVo and LoVo/DX (two types of colorectal: non-resistant and resistant to doxorubicin), and MCF-7 (breast adenocarcinoma). In addition, the NHDF cell line (normal human dermal fibroblasts) was used to estimate cytotoxicity to noncancer cells. The A549, CCRF/CEM, LoVo, LoVo/DX, and MCF-7 cells were obtained from ECACC, and NHDF cells from LONZA, Belgium. The A549 and MCF-7 cells were grown in EMEM medium, CCRF/CEM cells in RPMI-1640, LoVo and LoVo/DX cells in DMEM/F-12, and NHDF cells in DMEM without phenol red. The cells were seeded in […] in the biological assay, as recommended by the National Cancer Institute. All culture media were supplemented with L-glutamine, penicillin, streptomycin, and 10% fetal bovine serum (FBS). Cells were incubated at 37 °C and 5% CO2. An assessment of the mitochondrial cell activity after applying tested compounds was carried out using the test MTT assay, recommended in the ISO 10993-5:2009 standard. As in the SRB assay, the cells were exposed to tested compounds after 24 h of initial incubation in 96-well plates. The MTT solution (1 mg/mL) was added to each well, and cells were incubated for 2 h. Finally, the supernatant was removed, and the formazan crystals were dissolved in isopropanol. After 30 min, absorbance at 570 nm in Victor2 microplate reader (PerkinElmer). Cell viability was determined as the IC50 ratio, i.e., the concentration of the compound in which the viability was reduced by half compared with the control.

Data set [2] concerns CCRF/CEM cells. Briefly: MTT assay (mitochondrial activity), CCRF/CEM. It is filed as cell-based. To be noted: Homo sapiens. On the procedure: as §1
For data set [3], the system named is A549 cells. Briefly: Proton pump blocking test (omeprazole) for lysosomal exocytosis. It is filed as cell-based, human. Particulars: for intracellular localisation: LysoTracker staining. As to the method:
To assess whether the exocytosis of olivacine and ellipticine from cancer cells is lysosomal, a proton pump blocking test was performed. Omeprazole was added into A549 cells at a concentration of 200 µM for 1 h. The cell culture was then washed twice with PBS, and the cells were treated with tested compounds. The cell culture was assessed using an Evos FL microscope. The lysosomes were stained using LysoTracker™ Deep Red kit (L12492; Invitrogen). Cultured cells were evaluated using an Evos FL microscope, taking photos every 15 min. After treatment with olivacine or olivacine and omeprazole, analysis of mean cell fluorescence was performed from five independent replicates. In addition, 14 pictures were taken from each replicate, and 100 cells were analyzed by photomicrography using the ImageJ platform.

For data set [4], the system named is LoVo/DX cells. In words: MTT assay (mitochondrial activity), LoVo/DX. It is filed as cell-based. To be noted: Homo sapiens, LoVo/DX cells (doxorubicin-resistant). As to the method:
as §1

Data set [5] has as its system LoVo/DX cells. Briefly: SRB assay (total protein content), LoVo/DX. It is filed as cell-based. Particulars: Homo sapiens, LoVo/DX cells (doxorubicin-resistant), 48 h incubation. As to the method: (§2) The anticancer activity of tested compounds was assessed on five human cell lines selected from the panel of tumor cell lines recommended by the National Cancer Institute: A495 (lung carcinoma), CCRF/CEM (acute lymphoblastic leukemia), LoVo and LoVo/DX (two types of colorectal: non-resistant and resistant to doxorubicin), and MCF-7 (breast adenocarcinoma). In addition, the NHDF cell line (normal human dermal fibroblasts) was used to estimate cytotoxicity to noncancer cells. The A549, CCRF/CEM, LoVo, LoVo/DX, and MCF-7 cells were obtained from ECACC, and NHDF cells from LONZA, Belgium. The A549 and MCF-7 cells were grown in EMEM medium, CCRF/CEM cells in RPMI-1640, LoVo and LoVo/DX cells in DMEM/F-12, and NHDF cells in DMEM without phenol red. The cells were seeded in […] in the biological assay, as recommended by the National Cancer Institute. All culture media were supplemented with L-glutamine, penicillin, streptomycin, and 10% fetal bovine serum (FBS). Cells were incubated at 37 °C and 5% CO2. One of the most popular in vitro tests to evaluate the activity of compounds with potential antitumor activity is the SRB assay. The sulforhodamine B dye is used, which binds to the protein at the appropriate pH. The assay allows for assessing cell mass and, indirectly, their proliferation. The advantage of the assay is that it measures cellular protein content and not the activity of any enzymes. The SRB assay was carried out according to the National Cancer Institute procedure. Cells were incubated in a culture medium for 24 h in 96-well plates. After 24 h, the control plate for each cell line was fixed with TCA to evaluate cell culture before treatment with tested compounds. […] Cell cultures were then fixed by adding 50% TCA at 4 °C for 1 h. After removing the supernatant, the plates were washed with water and dried. […] Growth inhibition was calculated following the NCI guidelines and expressed as the GI50 ratio, i.e., the concentration of the compound in which the amount of protein was reduced by half compared with the control.

The test system of data set [6] is NHDF cells. In words: SRB assay (total protein content), NHDF. The data set is classed as cell-based. To be noted: Homo sapiens, NHDF normal cells, 48 h incubation. On the procedure:
as §2

For data set [7], the system named is CCRF/CEM cells. In words: Rate of apoptosis (annexin V/PI, Tali Apoptosis Kit). The data set is classed as cell-based, human. Particulars: 24 h incubation, tested 0.2, 0.5 and 1 μM. As to the method:
Apoptosis is a process of programmed cell death. After exposure to tested compounds, the apoptosis rate was measured using Tali Apoptosis Kit (Invitrogen, Thermo Fisher Scientific, Waltham, MA, USA). In the process of apoptosis, phosphatidylserine (PS) is transferred to the outer side of the cell membrane. The assay uses the ability of fluorophore-labeled annexin V to identify apoptotic cells by binding to exposed PS. The CCRF/CEM cells were incubated in RPMI-1640 medium in 24-well plates for 24 h (37 °C, 5% CO2). Then, tested compounds were added at three different concentrations (0.2, 0.5, and 1 μM) and incubated for 24 h. Negative control was the culture of cells not exposed to apoptosis-inducing factors. After incubation with tested compounds, the cells were harvested, centrifuged, and the supernatant removed. Cells were suspended in annexin V binding buffer (ABB), and Alexa Fluor 488 annexin V conjugate was added to each sample. The cells were then incubated for 20 min in the dark at RT, centrifuged, and resuspended in ABB with propidium iodide (PI). After 5 min incubation, the stained samples were transferred to Tali Cellular Analysis Slides and analyzed using an image-based cytometer Arthur (NanoEnTek Inc., Seoul, Korea).

Data set [8] relates to A549 cells. In words: MTT assay (mitochondrial activity), A549. The data set is classed as cell-based. To be noted: Homo sapiens. As to the method: as §1
Data set [9] deals with CCRF/CEM cells. In words: SRB assay (total protein content), CCRF/CEM. It is filed as cell-based. To be noted: Homo sapiens, 48 h incubation. As to the method:
as §2

Data set [10] deals with LoVo cells. Briefly: SRB assay (total protein content), LoVo. It is filed as cell-based. Particulars: Homo sapiens, 48 h incubation. On the procedure:
as §2

[11] abbreviates: 1 h pre-incubation with 200 µM omeprazole, compound 10 µM.

Regarding `Cc1c2ccncc2c(C)c2c1[nH]c1ccccc12` [Ellipticine], the IC50 in [1] came out at 4.67 ± 0.53 µM; in [2], 5.86 ± 0.51 µM; in [4] it was 15.1 ± 1.73 µM; in data set [8], 12.9 ± 2.36 µM. In data set [3] (setting [11]), the “time after which exocytosis was observed after omeprazole” value is recorded as more than 3 h. Also, the GI50 in [5] is 0.75 ± 0.22 µM; in [6], 4.44 ± 0.74 µM; in data set [9] it was 0.77 ± 0.17 µM; in [10] it was 0.95 ± 0.25 µM. Besides, the “concentration at which apoptosis was induced” value in [7] was 1 µM.

With `Cc1nccc2c(C)c3[nH]c4ccccc4c3cc12` [Olivacine, 1,5-dimethyl-6H-pyrido[4,3-b]carbazole], the IC50 in data set [1] turned out to be 18.5 ± 2.41 µM; in [2], 11 ± 3.3 µM; in data set [4], 26.3 ± 4.64 µM; in [8], 17.8 ± 7.82 µM. The “duration of blockage of exocytosis after omeprazole” value in [3] (setting [11]) is recorded as “at least 3 h”. Also, the intracellular localisation entry in data set [3] (with omeprazole) was “in the cytoplasm and not in the lysosomes”; in data set [3] (without omeprazole) it was “accumulation of olivacine in the lysosomes”. Besides, the GI50 stood at 0.82 ± 0.08 µM in data set [5], 14.8 ± 3.77 µM in data set [6], 0.81 ± 0.14 µM in data set [9] and 1.02 ± 0.21 µM in [10]. The “concentration at which apoptosis was induced” value in data set [7] was found to be 1 µM.
